US4474764A, “3-Amino-2-hydroxy-4-phenylbutanoic acid derivatives and pharmaceutical composition containing the same” (Zaidan Hojin Biseibutsu Kagaku Kenkyu Kai, priority 1981, dated 1984)

Columns and labels:
[1] = target: T1, enkephalinase (Rattus norvegicus, UniProt P07861); experiment: Inhibitory activity against enkephalinase (Test 1); type: biochemical; conditions: enkephalinase from corpus striatum of rat brain; substrate methionine-enkephaline; 37° C., 1 hour; pH 7.7
T1 construct: homogenizing corpus striatum of rat brain and by partial purification of the brain homogenate; from tissue; host or cells: rat brain corpus striatum, homogenate partially purified by the method of Gorenstein et al
T1 sequence (P07861 1-750): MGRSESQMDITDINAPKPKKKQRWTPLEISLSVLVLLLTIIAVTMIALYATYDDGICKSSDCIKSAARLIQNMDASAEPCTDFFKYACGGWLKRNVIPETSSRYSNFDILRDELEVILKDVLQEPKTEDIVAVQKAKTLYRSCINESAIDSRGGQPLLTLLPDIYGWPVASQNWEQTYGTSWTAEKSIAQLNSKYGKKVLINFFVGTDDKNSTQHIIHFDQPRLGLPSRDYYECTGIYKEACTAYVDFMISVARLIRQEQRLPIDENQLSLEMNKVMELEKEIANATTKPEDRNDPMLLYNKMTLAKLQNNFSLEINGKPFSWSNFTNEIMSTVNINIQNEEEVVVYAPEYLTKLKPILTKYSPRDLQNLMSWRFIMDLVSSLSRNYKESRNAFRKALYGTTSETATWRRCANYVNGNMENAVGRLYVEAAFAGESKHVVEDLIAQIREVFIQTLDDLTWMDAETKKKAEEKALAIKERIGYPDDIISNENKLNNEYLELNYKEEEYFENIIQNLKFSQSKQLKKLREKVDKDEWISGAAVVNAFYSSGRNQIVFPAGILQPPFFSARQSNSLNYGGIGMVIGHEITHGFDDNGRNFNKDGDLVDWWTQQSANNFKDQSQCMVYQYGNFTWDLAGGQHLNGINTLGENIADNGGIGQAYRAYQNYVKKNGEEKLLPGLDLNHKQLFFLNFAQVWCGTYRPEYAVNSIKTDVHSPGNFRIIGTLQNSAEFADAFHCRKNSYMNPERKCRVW
Experimental: Inhibitory activity against enkephalinase were tested.
A preparation of enkephalinase was made by homogenizing corpus striatum of rat brain and by partial purification of the brain homogenate according to the method of Gorenstein et al (see the "Life Science" Vol. 25, 2065~2070 (1979) Pergamon Press, U.S.A.).
A test compound was dissolved in a mixture of Trishydrochloride buffered solution (pH 7.7) and an aqueous 1% Triton X100 (an active surfectant) to such a concentration that the added quantity of the test compound amounted to one-tenth of the volume of said mixture. To the solution of the test compound so prepared was added the enkephalinase, followed by incubation for five minutes at ambient temperature and further by addition of methionine-enkephaline as the substrate. The admixture so obtained was incubated at 37° C. for 1 hour and then subjected to a high-performance liquid chromatography in such a manner that the Tyr-Gly-GLy (a fragment of the methionine-enkephaline) formed by the enzymatic degradation of methionine-enkephaline was isolated in some fractions of the eluate and the quantity of Tyr-Gly-GLy was determined by an electro-chemically analysing detector. In this way, IC50 value of the test compound, namely the dose of the test compound required for 50% inhibition of the enkephalinase was measured.

[2] = tested on: morphine analgesia-non-effective Wistar rats; experiment: Effect of enhancing morphine analgesia, tail-flick latency (Test 2); type: in vivo, rat
Experimental: Effect of enhancing morphine analgesia was tested.
To Wistar rats (10 week-age, male, body weight 250~300 g) was given intraperitoneally morphine at a dose of 0.5 mg/kg, and these rats receiving the morphine were classified into the group of morphine analgesia-effective rats and the group of morphine analgesia-non-effectiverats according to the classification method described in the "Showa Igakukai Zasshi" Vol. 39, No. 5, pages 537~542 (1979). […] The effect of analgesia was evaluated according to the method of tail-flick latency of rats described in the "Showa Igakukai Zasshi" Vol. 39, No. 5, pages 537~542 (1979). The evaluation of pain threshold of rats according to the tail-flick latency method was made as follows: Radiant heat stimulus was applied to the region of the rat tail which positioned 1 cm away from the tail tip and which had been colored black with a black-dye, and the time of latency involved in the tail flick, namely the period of time lapsing between the time of application of the heat stimulus and the time of the reflective flick response of the tail was measured. The quantity of the heat applied was so controlled that the average time of latency of the tail-flick response appearing in the control group of rats (receiving neither the test compound nor the morphine) was about 2.0 seconds. The tests were accomplished as long as the maximum value for the tail-flick latency was 7.0 seconds or less, as otherwise the skin of the rat tail could be damaged by the application of heat. In other words, if the time for the tail-flick latency was longer than 7.0 seconds, the tests were stopped to prevent the damage of the rat tail. The radiant heat stimulus was repeated 5 times for each test rat at an interval of 15 minutes and the times of latency in the flick response of the tail measured in each test were averaged. In each test, 5 rats were used.
The difference in the time of the tail-flick latency between the test rats (receiving 250 mg/kg of the test compound plus 0.5 mg/kg of morphine) and the control rats (receiving 0.5 mg/kg of morphine alone) was calculated, and the effect for enhancement of morphine analgesia was estimated in term of the value of percentages which were calculated by the following equation: [formula]

[3] = tested on: mice of ddy-strain; experiment: Analgesic activity by the acetic acid-writhing method (Test 3); type: in vivo, mouse; conditions: for Number of Writhings (Average value ± standard error): 30 minutes before 0.6% acetic acid i.p., counted during 15 minutes; for Suppression of writhing reactions: compared to the control group
Excerpt: Analgesic activity of test compound was estimated according to the acetic acid-writhing method.
Mice groups each containing 10 mice of ddy-strain (male, 5 weeks-aged, average body weight about 20 grams) were employed as the test animal. A suspension of the test compound, D-Phe-AHPA suspended in an aqueous solution containing 0.5% of gum arabic and 7% of an active surfectant (consisting of the reaction products of hydrogenated castor oil with polyoxyethylene, commercially available under a registered tradename "Nikkol HCO-60", a product of Nihon Nyukazai Co., Ltd., Japan) was subcutaneously injected into each mouse at a dosage of 30, 150 or 250 mg/kg of the test compound. The above-mentioned suspension so subcutaneously injected was containing the test compound at such a concentration that 0.2 ml of said suspension as injected into each mouse provided the dosage of 30 mg/kg, 150 mg/kg or 250 mg/kg of the test compound. 30 Minutes later, […] of an aqueous solution of 0.6% of acetic acid was injected intraperitoneally into the mice. 5 Minutes after the injection of the aqueous acetic acid, estimation was commenced to count the number of the writhing reaction of the treated mice (the motions such as abdominal constrictions and extensions of the treated mice as induced by the injection of acetic acid) which took place during the subsequent 15 minutes (see the Japanese medical book "Iyaku Kaihatsu Koza" Vol. 5 pages 282~286, published from Chijin-Shokan in 1971 and an English medicinal journal "Brit. J. Pharmacol." 32, pages 295~310, 1968). For control, another mice groups received the subcutaneous administration of an aqueous solution containing no test compound but containing 0.5% of gum arabic and 7% of the active surfectant (Nikkol HCO-60). The rate (%) of suppressing the writhing reactions was evaluated as compared to the control group. "Students-t-test" was employed for the statistical analysis of the test results.

[4] = tested on: morphine analgesia-non-effective Wistar rats; experiment: Effect of enhancing morphine analgesia, tail-flick latency (Test 2); type: in vivo, rat; remark: listed apart in the source

Structure (SMILES)	IC50 [1] [µM]	Morphine Analgesia enhancement ([2]; 250 mg/kg test compound i.p., 10 minutes later 0.5 mg/kg morphine i.p., versus 0.5 mg/kg morphine alone, tail-flick latency) [%]	Number of Writhings (Average value ± standard error) ([3]; 30 mg/kg s.c.)	Suppression of writhing reactions ([3]; 30 mg/kg s.c.) [%]	Number of Writhings (Average value ± standard error) ([3]; 150 mg/kg s.c.)	Suppression of writhing reactions ([3]; 150 mg/kg s.c.) [%]	Number of Writhings (Average value ± standard error) ([3]; 250 mg/kg s.c.)	Suppression of writhing reactions ([3]; 250 mg/kg s.c.) [%]	Dose dependence of suppression of acetic acid-writhing reaction ([3]; 30, 150 or 250 mg/kg s.c., compound alone)	Morphine Analgesia enhancement ([2]; morphine alone 0.5 mg/kg (comparative)) [%]	Morphine Analgesia enhancement ([4]; morphine alone 2 mg/kg (comparative)) [%]	Morphine Analgesia enhancement ([4]; morphine alone 3 mg/kg (comparative)) [%]
N[C@H](Cc1ccccc1)C(=O)N[C@H](Cc1ccccc1)[C@H](O)C(=O)O [Compound 10, (2S,3R)-3-N--(R)-phenylalanylamino-2-hydroxy-4-phenylbutanoic acid]	740	35.0	48.3 ± 3.7	37.4	43.9 ± 3.8	43.1	31.3 ± 8.0	59.4	suppressed the acetic acid-writhing reaction in the dosage-depending manner			
CN1CC[C@]23c4c5ccc(O)c4O[C@H]2[C@@H](O)C=C[C@H]3[C@H]1C5 [Morphine, morphine]										0	28.4	35.1
